Results reported in patent US20080207538A1, “Enhanced Production of Functional Proteins From Defective Genes” (priority 2004, published 2008).

Legend:
[1] = system: stop codon inserted into the reading frame of firefly luciferase; assay: stop codon read-through, dual luciferase assay in transfected 293T cells; type: cell-based, human; settings: relative to untreated transfected cells, 24 hour incubation
Procedure: Plasmid construction. The wild type human fibroblast cell line GM02037 (Coriell Cell Repositories, NJ) was used as the DNA template for atm promoter amplification. In brief, the Qiagen Blood & Cell Culture DNA Mini kit was used to purify genomic DNA. ATM gene promoter primers, which were used to amplify the desired fragment DNA, were designed based on the sequence in Genebank. The forward primer sequence employed was […] (SEQ ID NO:1) and the reverse primer was […] (SEQ ID NO:2). PCR was carried out using the Roche Expand High Fidelity PCR system. The amplified atm promoter region was then cloned into the TOPO2.1 PCR vector (Invitrogen) for sequencing verification and subsequently subcloned into the promoterless plasmid PA3Luc. Firefly luciferase cDNA was mutated (QuikChange Site-Directed Mutagenesis Kit) in the desired region to furnish the three stop codons, as shown as FIG. 1(C). The CMV driven Renilla luciferase plasmid was purchased from Promega as the internal control for the dual luciferase assay.
Transfections were performed using GeneJammer reagent (Stratagene) based on the protocol from the manufacturer. In brief, approximately […] HEK293T cells were seeded into white 96 well plates (Corning) and grown for less than 24 hours. Cells were transfected with 0.6 μL of GeneJammer and 0.1 μg plasmids. In the dual luciferase assay, the plasmid ratio of ATM promoter-driven firefly luciferase to CMV promoter-driven Renilla luciferase was 30:1. In the dual luciferase experiments that utilized the stop codon-containing firefly luciferase genes, the ratio was 40:1. On the second day after transfection, the medium in each well was changed, and the promoter and/or nonsense-suppressing agents added to the wells for a 24 hour incubation period. The cells were subsequently lysed and promoter activity/nonsense suppression efficiency then assessed via the dual luciferase assay.
Dual luciferase assay. The dual luciferase kit was purchased from Promega and the protocol employed was conducted according to the directions supplied by the manufacturer. In brief, cells were washed with PBS and lysates were prepared using passive lysis buffer. Luminescence was determined with a Molecular Devices Lmax 96 well plate luminometer. Light emission was measured after each of the 100 μL luminescence substrates and/or stop solutions were injected. ATM promoter activity was calculated by the ratio of relative light units of flash (firefly) to glow (renilla) luminescence in each well, which was compared with control wells (cultured only in medium with plasmid but no drug treatment) in each plate. In the case of the stop codon suppression studies, controls also included cells containing the plasmids without the inserted stop codon, which were treated with nonsense suppressing and/or promoter activating agents. All individual treatments in a given experiment were performed in triplicate and all experiments repeated 3-10 times.
An evaluation was made of the ability of aminoglycosides, in combination with promoter activating agents, to augment read-through of a stop codon inserted into the reading frame of firefly luciferase (FIG. 1C).

atm message = assay: atm mRNA quantitation by real time PCR (RT-PCR) after drug treatment; type: cell-based, human; settings: for Fold-increase (atm message levels): relative to untreated cell line
Procedure: Cell culture and transfection. Human Kidney HEK293T cell was a gift from Professor Philipp Scherer in the Department of Cell Biology at the Albert Einstein College of Medicine. All other cell lines were purchased from Coriell Cell Repositories, NJ. HEK293T cells were maintained in Dulbecco's Modified Eagle Medium with 1 g/L D-glucose and 10% fetal bovine serum. The Human AT fibroblast cell line GM05823 was cultured in MEM medium with 1 g/L D-glucose and 15% fetal bovine serum. The Human lympoblastoid cell lines GM 13810 and GM13860 were cultured in RPMI 1640 medium with 10% heat inactivated fetal bovine serum and 1 g/L of D-glucose. All cell lines were incubated at 37° C. in a humidified 5% CO2 atmosphere.
mRNA Quantitation. Single-stranded cDNAs were synthesized by reverse transcription, using a First Strand cDNA Synthesis kit (Invitrogen), and then used as a template in polymerase chain reactions. ATM mRNA was primarily quantified using real time polymerase chain reaction (PCR). In brief, cells were treated with the desired drugs or combinations thereof under conditions identical to those described above for the dual luciferase assay. Cells were lysed and RNA extracted with the TRIzol reagent (Invitrogen). Approximately 1 μg of total RNA in each sample was subjected to CDNA synthesis using the First Strand cDNA Synthesis kit (Invitrogen). In the real time PCR reaction, the FAM labeled MGB probe, CCAGCTATTTGGTTTGAG (SEQ ID NO:3), was designed by the Primer Express software from Applied Biosystems (AB) and synthesized by AB. The human β-actin MGB probes, VIC or FAM fluorescently labeled, were purchased from AB. All other reaction reagents were purchased from AB. PCR reactions were performed using the ABI PRISM 7000 Sequence Detection System in triplicate. Some samples were also tested on the ABI 7700 Sequence Detection System for verification and essentially identical results were obtained with both real time PCR instruments. All collected data were compared with a […] control. In addition to real time PCR, the branched chain DNA (bDNA) RNA quantitation method was employed as well. Briefly, the QuantiGene kit as well as the customer designed atm probe sets were purchased from Genospectra. The latter probes target the same region on the atm message RNA region as the real time PCR probes. The cells were treated as described above for the dual luciferase assay. Cell lysates were transferred into a capture plate and atm mRNA allowed to hybridize with the probe set at 53° C. overnight. After 16-20 hours, the signal was amplified and subsequently read using a Molecular Devices Lmax luminometer. The internal human β-actin probe sets were purchased from Genospectra. All experiments were performed in triplicate.
The effect of ofloxacin on native atm message levels was subsequently examined in 293T cells as well as in lymphoblastoid and primary fibroblast cell lines derived from A-T patients (Table 1). Message levels are enhanced 2.4±0.1 fold in 293T cells treated with ofloxicin for 24 hours. By contrast, an up to nearly 6-fold increase is observed in ATM-deficient (A-T) cell lines. The latter results offer the intriguing possibility that atm message levels are elevated more dramatically in an ATM-deficient environment.

[2] = system: animal models of cystic fibrosis and Duchenne muscular dystrophy; settings: reported; cited from earlier work
[3] = system: patients with sickle-cell anemia; settings: Perrine et al., 1993; cited from earlier work
atm promoter = assay: cell-based screen for atm promoter enhancing agents (atm/pA3LUC dual luciferase, 293T cells); design: species or system human; settings: transiently transfected 293T cells; firefly/renilla luciferase
Source text: Plasmid construction. The wild type human fibroblast cell line GM02037 (Coriell Cell Repositories, NJ) was used as the DNA template for atm promoter amplification. In brief, the Qiagen Blood & Cell Culture DNA Mini kit was used to purify genomic DNA. ATM gene promoter primers, which were used to amplify the desired fragment DNA, were designed based on the sequence in Genebank. The forward primer sequence employed was […] (SEQ ID NO:1) and the reverse primer was GCCACGGGAGGAGGCGAG (SEQ ID NO:2). PCR was carried out using the Roche Expand High Fidelity PCR system. […]
Transfections were performed using GeneJammer reagent (Stratagene) based on the protocol from the manufacturer. […] The cells were subsequently lysed and promoter activity/nonsense suppression efficiency then assessed via the dual luciferase assay.
Dual luciferase assay. […] Luminescence was determined with a Molecular Devices Lmax 96 well plate luminometer. Light emission was measured after each of the 100 μL luminescence substrates and/or stop solutions were injected. ATM promoter activity was calculated by the ratio of relative light units of flash (firefly) to glow (renilla) luminescence in each well, which was compared with control wells (cultured only in medium with plasmid but no drug treatment) in each plate. […]

nonsense mutations = settings: reported, Keeling and Bedwell, 2002; cited from earlier work

CN[C@@H]1[C@@H](O)[C@@H](O[C@@H]2[C@@H](O)[C@H](O[C@H]3O[C@H]([C@@H](C)O)[C@@H](O)[C@H](O)[C@H]3N)[C@@H](N)C[C@H]2N)OC[C@]1(C)O [Geneticin, geneticin]
Fold-increase (read-through) ([1]; amber (UAG) stop codon): 14.9 ± 1.9 fold | Fold-increase (read-through) ([1]; ochre (UAA) stop codon): 7.9 ± 3.0 fold | Fold-increase (read-through) ([1]; opal (UGA) stop codon): 6.5 ± 0.8 fold

CC1COc2c(N3CCN(C)CC3)c(F)cc3c(=O)c(C(=O)O)cn1c23 (stereo not shown) [Ofloxacin, ofloxacin]
Message levels enhanced (atm) (atm message; 293T cells, treated for 24 hours): 2.4±0.1 fold | increase in atm message levels (atm message; ATM-deficient (A-T) cell lines, summary of Table 1): ≤ 6 fold | Fold-increase (atm message levels) (atm message; GM05823 (A-T) fibroblast cell line, 2 hours after ofloxacin): 2.2 ± 0.1 fold | Fold-increase (atm message levels) (atm message; GM05823 (A-T) fibroblast cell line, 6 hours after ofloxacin): 3.0 ± 0.2 fold | Fold-increase (atm message levels) (atm message; GM05823 (A-T) fibroblast cell line, 24 hours after ofloxacin): 5.8 ± 0.4 fold | Fold-increase (atm message levels) (atm message; GM13810 (A-T) lymphoblastoid cell line, 2 hours after ofloxacin): 1.2 ± 0.2 fold | Fold-increase (atm message levels) (atm message; GM13810 (A-T) lymphoblastoid cell line, 6 hours after ofloxacin): 2.3 ± 0.3 fold | Fold-increase (atm message levels) (atm message; GM13810 (A-T) lymphoblastoid cell line, 24 hours after ofloxacin): 5.4 ± 0.7 fold | Fold-increase (atm message levels) (atm message; GM13860 (A-T) lymphoblastoid cell line, 2 hours after ofloxacin): 3.8 ± 0.9 fold | Fold-increase (atm message levels) (atm message; GM13860 (A-T) lymphoblastoid cell line, 6 hours after ofloxacin): 2.3 ± 0.3 fold | Fold-increase (atm message levels) (atm message; GM13860 (A-T) lymphoblastoid cell line, 24 hours after ofloxacin): 3.3 ± 0.3 fold

O=C(O)c1cccc(-c2noc(-c3ccccc3F)n2)c1 [PTC124]
efficacy in animal models [2]: effective

CCCC(=O)[O-].[Na+] [Sodium butyrate, sodium butyrate]
toxicity in patients [3]: minimal toxicity

Nc1nc2nc[nH]c2c(=S)[nH]1 [Thioguanine, thioguanine]
activation of the atm promoter (atm promoter): induce atm promoter activity

NCC[C@H](O)C(=O)N[C@@H]1C[C@H](N)[C@@H](O[C@H]2O[C@H](CN)[C@@H](O)[C@H](O)[C@H]2O)[C@H](O)[C@H]1O[C@H]1O[C@H](CO)[C@@H](O)[C@H](N)[C@H]1O [amikacin]
effectiveness at suppressing nonsense mutations compared with tobramycin (nonsense mutations): more effective

gentamicin
Fold-increase (read-through) ([1]; amber (UAG) stop codon): 8.2 ± 1.8 fold | Fold-increase (read-through) ([1]; ochre (UAA) stop codon): 6.7 ± 1.5 fold | Fold-increase (read-through) ([1]; opal (UGA) stop codon): 8.7 ± 1.2 fold | effectiveness at suppressing nonsense mutations compared with tobramycin (nonsense mutations): more effective
